Assay results published in patent publication US10946017B2, “Tank-binding kinase-1 PROTACs and associated methods of use” (Arvinas Operations, Inc., priority 2015, dated 2021).

Legend:
[1] = biological target: T1, TBK1 (Homo sapiens (Human), UniProt Q9UHD2); experiment: In vitro TBK1 degradation assay, Panc02.13 cells (compounds 3-33), immunoblot; format: cell-based; conditions: TBK1 degradation, Panc02.13 cells, 16 h, mean of ≥ 2 determinations; for DC50: read-out: DC50 (concentration at which 50% degradation is observed)
Protocol: In vitro degradation assay protocol for compounds 3-33: Panc02.13 cells were purchased from ATCC and cultured in RPMI-1640 (Gibco), supplemented with 15% FBS (ATCC) and 10 Units/mL human recombinant insulin (Gibco). PROTAC treatments were carried out in 12-well plates for 16 h. TLR3 agonist Poly I:C (Invivogen; tlr1-pic) was added for the final 3 h. Cells were harvested, and lysed in RIPA buffer (50 mM Tris pH8, 150 mM NaCl, 1% Tx-100, 0.1% SDS, 0.5% Sodium Deoxycholate) supplemented with protease and phosphatase inhibitors. Lysates were clarified at 16,000 g for 10 minutes, and supernatants were separated by SDS-PAGE. Immunoblotting was performed using standard protocols. The antibodies used were TBK1 (Cell Signaling#3504), pIRF3 (abcam#ab76493), and GAPDH (Cell Signaling#5174).

[2] = biological target: T1, TBK1; experiment: In vitro TBK1 degradation assay, MDA MB 231 cells (compounds 34-57), immunoblot; format: cell-based; conditions: 1 uM compound, 16 h, read-out: % TBK1 remaining at 1 uM Cmpd
Protocol: MDA MB 231 cells were purchased from ATCC and cultured in RPMI-1640 (Gibco), supplemented with 10% FBS (Gibco). PROTAC treatments were carried out in 24-well plates for 16 h. Cells were harvested, and lysed in RIPA buffer (50 mM Tris pH8, 150 mM NaCl, 1% Tx-100, 0.1% SDS, 0.5% Sodium Deoxycholate) supplemented with protease and phosphatase inhibitors. Lysates were clarified at 16,000 g for 10 minutes, and supernatants were separated by SDS-PAGE. Immunoblotting was performed using standard protocols. The antibodies used were TBK1 (Cell Signaling#3504) and GAPDH (Cell Signaling#5174).

[3] = biological target: Von Hippel-Lindau (VHL) E3 ligase (Homo sapiens (Human), UniProt P40337); experiment: VHL binding, FP assay; conditions: affinity of the VHL ligand component with side chain R2
Von Hippel-Lindau (VHL) E3 ligase, sequence (P40337 whole entry, looked up): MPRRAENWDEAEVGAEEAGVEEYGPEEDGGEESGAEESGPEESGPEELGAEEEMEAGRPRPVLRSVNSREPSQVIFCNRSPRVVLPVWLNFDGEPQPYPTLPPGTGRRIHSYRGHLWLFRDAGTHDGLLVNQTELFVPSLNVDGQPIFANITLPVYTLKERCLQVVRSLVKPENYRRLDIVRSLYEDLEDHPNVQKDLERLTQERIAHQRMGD
Von Hippel-Lindau (VHL) E3 ligase, sequence (Q15370 whole entry partner, looked up): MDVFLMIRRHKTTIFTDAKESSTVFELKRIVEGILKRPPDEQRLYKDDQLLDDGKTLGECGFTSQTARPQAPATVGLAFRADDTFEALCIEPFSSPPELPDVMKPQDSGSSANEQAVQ
Von Hippel-Lindau (VHL) E3 ligase, sequence (Q15369 whole entry partner, looked up): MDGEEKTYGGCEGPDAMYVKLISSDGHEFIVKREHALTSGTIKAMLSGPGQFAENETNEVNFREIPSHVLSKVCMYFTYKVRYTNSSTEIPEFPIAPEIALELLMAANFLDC

T1 sequence (Q9UHD2 whole entry): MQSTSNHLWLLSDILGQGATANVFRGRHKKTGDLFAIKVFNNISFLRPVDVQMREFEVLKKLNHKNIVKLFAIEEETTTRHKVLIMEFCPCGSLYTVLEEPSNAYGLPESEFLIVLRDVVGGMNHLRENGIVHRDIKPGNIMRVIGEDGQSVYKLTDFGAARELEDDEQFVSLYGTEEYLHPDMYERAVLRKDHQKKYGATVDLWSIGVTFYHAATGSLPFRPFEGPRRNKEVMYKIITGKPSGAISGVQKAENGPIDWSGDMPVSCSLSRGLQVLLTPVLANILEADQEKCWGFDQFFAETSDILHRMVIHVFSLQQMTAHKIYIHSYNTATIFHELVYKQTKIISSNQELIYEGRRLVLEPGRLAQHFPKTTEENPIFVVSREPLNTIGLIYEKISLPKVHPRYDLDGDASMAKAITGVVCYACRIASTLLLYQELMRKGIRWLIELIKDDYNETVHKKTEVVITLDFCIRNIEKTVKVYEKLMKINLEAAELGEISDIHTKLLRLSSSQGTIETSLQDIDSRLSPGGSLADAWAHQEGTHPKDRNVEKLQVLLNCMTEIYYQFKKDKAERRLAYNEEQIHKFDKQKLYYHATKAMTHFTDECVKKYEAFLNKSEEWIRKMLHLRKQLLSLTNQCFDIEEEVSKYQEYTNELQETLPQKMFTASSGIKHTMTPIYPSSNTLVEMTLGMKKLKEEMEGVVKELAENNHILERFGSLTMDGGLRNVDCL

Cc1ncsc1-c1ccc(CNC(=O)[C@@H]2C[C@@H](O)CN2C(=O)[C@@H](NC(=O)COCCOCCOCCOCCOc2ccc(Nc3ncc(Br)c(NCCCN(C)C(=O)C4CCC4)n3)cc2)C(C)(C)C)cc1 [Compound 10]
Dmax (maximal degradation observed) [1]: 92%
DC50 [1]: 103 nM

Cc1ncsc1-c1ccc(CNC(=O)[C@@H]2C[C@@H](O)CN2C(=O)[C@H](C(C)C)N2Cc3ccccc3C2=O)c(OCCCOCCCCOCCCOc2ccc(Nc3ncc(Br)c(NCCCN(C)C(=O)C4CCC4)n3)cc2)c1 [Compound 44]
remaining activity at 1 µM [2]: 41 to 80%

Cc1ncsc1-c1ccc(CNC(=O)[C@@H]2C[C@@H](O)CN2C(=O)[C@H](C(C)C)N2Cc3ccccc3C2=O)c(OCCCCOc2ccc(Nc3ncc(Br)c(NCCCN(C)C(=O)C4CCC4)n3)cc2)c1 [Compound 39]
remaining activity at 1 µM [2]: ≥ 81%

Cc1ncsc1-c1ccc(CNC(=O)[C@@H]2C[C@@H](O)CN2C(=O)[C@@H](NC(=O)COCCCOCCCCOCCCOc2cccc(Nc3ncc(C4CC4)c(NCCCN(C)C(=O)C4CCC4)n3)c2)C(C)(C)C)cc1 [Compound 51]
remaining activity at 1 µM [2]: ≥ 81%

Cc1ncsc1-c1ccc(CNC(=O)[C@@H]2C[C@@H](O)CN2C(=O)[C@H](C(C)C)N2Cc3ccccc3C2=O)c(OCCOCCOCCCCOCCOCCOc2ccc(Nc3ncc(Br)c(NCCCN(C)C(=O)C4CCC4)n3)cc2)c1 [Compound 45]
remaining activity at 1 µM [2]: 41 to 80%

CCC[C@H](NC(=O)COCCCOCCCCOCCCOc1ccc(Nc2ncc(Br)c(NCCCN(C)C(=O)C3CCC3)n2)cc1)C(=O)N1C[C@H](O)C[C@H]1C(=O)NCc1ccc(-c2scnc2C)cc1 [Compound 32]
Dmax (maximal degradation observed) [1]: 75%
DC50 [1]: 288 nM
IC50 [3]: 6200 nM

Cc1ncsc1-c1ccc(CNC(=O)[C@@H]2C[C@@H](O)CN2C(=O)[C@@H](NC(=O)CCOCCCOCCCOCCCOCCCOc2ccc(Nc3ncc(Br)c(NCCCN(C)C(=O)C4CCC4)n3)cc2)C(C)(C)C)cc1 [Compound 15]
Dmax (maximal degradation observed) [1]: 96%
DC50 [1]: 25 nM

Cc1ncsc1-c1ccc(CNC(=O)[C@@H]2C[C@@H](O)CN2C(=O)[C@H](C(C)C)N2Cc3ccccc3C2=O)c(OCCCCOCCCCOc2ccc(Nc3ncc(Br)c(NCCCN(C)C(=O)C4CCC4)n3)cc2)c1 [Compound 40]
remaining activity at 1 µM [2]: ≥ 81%

C=Cc1cnc(Nc2cccc(OCCCOCCCCOCCCOCC(=O)N[C@H](C(=O)N3C[C@H](O)C[C@H]3C(=O)NCc3ccc(-c4scnc4C)cc3)C(C)(C)C)c2)nc1NCCCN(C)C(=O)C1CCC1 [Compound 54]
remaining activity at 1 µM [2]: 41 to 80%

Cc1ncsc1-c1ccc(CNC(=O)[C@@H]2C[C@@H](O)CN2C(=O)[C@@H](NC(=O)COCCOCCCCOCCCCOCCOc2ccc(Nc3ncc(Br)c(NCCCN(C)C(=O)C4CCC4)n3)cc2)C(C)(C)C)cc1 [Compound 14]
Dmax (maximal degradation observed) [1]: 96%
DC50 [1]: 6 nM

Cc1ncsc1-c1ccc(CNC(=O)[C@@H]2C[C@@H](O)CN2C(=O)[C@H](C(C)C)N2Cc3ccccc3C2=O)c(OCCOCCOCCOCCOCCOc2ccc(Nc3ncc(Br)c(NCCCN(C)C(=O)C4CCC4)n3)cc2)c1 [Compound 38]
remaining activity at 1 µM [2]: ≥ 81%

Cc1ncsc1-c1ccc(CNC(=O)[C@@H]2C[C@@H](O)CN2C(=O)[C@H](C)NC(=O)COCCCOCCCCOCCCOc2ccc(Nc3ncc(Br)c(NCCCN(C)C(=O)C4CCC4)n3)cc2)cc1 [Compound 30]
Dmax (maximal degradation observed) [1]: 34%
DC50 [1]: > 1000 nM
IC50 [3]: 23600 nM

Cc1ncsc1-c1ccc(CNC(=O)[C@@H]2C[C@@H](O)CN2C(=O)[C@H](C(C)C)N2Cc3ccccc3C2=O)c(OCCOCCOc2ccc(Nc3ncc(Br)c(NCCCN(C)C(=O)C4CCC4)n3)cc2)c1 [Compound 34]
remaining activity at 1 µM [2]: 41 to 80%

Cc1ncsc1-c1ccc(CNC(=O)[C@@H]2C[C@@H](O)CN2C(=O)[C@H](C(C)C)N2Cc3ccccc3C2=O)c(OCCCOCCCOCCOCCCOCCCOc2ccc(Nc3ncc(Br)c(NCCCN(C)C(=O)C4CCC4)n3)cc2)c1 [Compound 48]
remaining activity at 1 µM [2]: 0 to 40%

Cc1ncsc1-c1ccc(CNC(=O)[C@@H]2C[C@@H](O)CN2C(=O)[C@H](C(C)C)N2Cc3ccccc3C2=O)c(OCCOCCOCCOCCOc2ccc(Nc3ncc(Br)c(NCCCN(C)C(=O)C4CCC4)n3)cc2)c1 [Compound 36]
remaining activity at 1 µM [2]: ≥ 81%

Cc1ncsc1-c1ccc(CNC(=O)[C@@H]2C[C@@H](O)CN2C(=O)[C@@H](NC(=O)CCCCCOCCCCOCCCCOc2ccc(Nc3ncc(Br)c(NCCCN(C)C(=O)C4CCC4)n3)cc2)C(C)(C)C)cc1 [Compound 12]
Dmax (maximal degradation observed) [1]: 90%
DC50 [1]: 95 nM

Cc1ncsc1-c1ccc(CNC(=O)[C@@H]2C[C@@H](O)CN2C(=O)[C@@H](NC(=O)COCCOCCOCCOc2ccc(Nc3ncc(Br)c(NCCCN(C)C(=O)C4CCC4)n3)cc2)C(C)(C)C)cc1 [Compound 7]
DC50 [1]: > 1000 nM

Cc1ncsc1-c1ccc(CNC(=O)[C@@H]2C[C@@H](O)CN2C(=O)[C@@H](NC(=O)COCCOCCOCCOCCOCCOCCOc2ccc(Nc3ncc(Br)c(NCCCN(C)C(=O)C4CCC4)n3)cc2)C(C)(C)C)cc1 [Compound 16]
Dmax (maximal degradation observed) [1]: 96%
DC50 [1]: 34 nM

Cc1cnc(Nc2cccc(OCCCOCCCCOCCCOCC(=O)N[C@H](C(=O)N3C[C@H](O)C[C@H]3C(=O)NCc3ccc(-c4scnc4C)cc3)C(C)(C)C)c2)nc1NCCCN(C)C(=O)C1CCC1 [Compound 50]
remaining activity at 1 µM [2]: ≥ 81%

Cc1ncsc1-c1ccc(CNC(=O)[C@@H]2C[C@@H](O)CN2C(=O)[C@@H](NC(=O)COCCOCCCCOCCCCOCCOCCOc2ccc(Nc3ncc(Br)c(NCCCN(C)C(=O)C4CCC4)n3)cc2)C(C)(C)C)cc1 [Compound 17]
Dmax (maximal degradation observed) [1]: 96%
DC50 [1]: 3 nM

Cc1ncsc1-c1ccc(CNC(=O)[C@@H]2C[C@@H](O)CN2C(=O)[C@@H](NC(=O)COCCCOCCCCOCCCOc2cccc(Nc3ncc4c(n3)N(CCCN(C)C(=O)C3CCC3)CC4)c2)C(C)(C)C)cc1 [Compound 53]
remaining activity at 1 µM [2]: ≥ 81%

Cc1ncsc1-c1ccc(CNC(=O)[C@@H]2C[C@@H](O)CN2C(=O)[C@@H](NC(=O)CCCCCOCCOc2ccc(Nc3ncc(Br)c(NCCCN(C)C(=O)C4CCC4)n3)cc2)C(C)(C)C)cc1 [Compound 5]
DC50 [1]: > 1000 nM

Cc1ncsc1-c1ccc(CNC(=O)[C@@H]2C[C@@H](O)CN2C(=O)[C@H](C(C)C)N2Cc3ccccc3C2=O)c(OCCOCCOCCOc2ccc(Nc3ncc(Br)c(NCCCN(C)C(=O)C4CCC4)n3)cc2)c1 [Compound 35]
remaining activity at 1 µM [2]: ≥ 81%

Cc1ncsc1-c1ccc(CNC(=O)[C@@H]2C[C@@H](O)CN2C(=O)[C@@H](NC(=O)COCCOCCOCCCCOc2ccc(Nc3ncc(Br)c(NCCCN(C)C(=O)C4CCC4)n3)cc2)C(C)(C)C)cc1 [Compound 9]
Dmax (maximal degradation observed) [1]: 86%
DC50 [1]: 71 nM

Cc1ncsc1-c1ccc(CNC(=O)[C@@H]2C[C@@H](O)CN2C(=O)[C@H](C(C)C)N2Cc3ccccc3C2=O)c(OCCOCCCOc2ccc(Nc3ncc(Br)c(NCCCN(C)C(=O)C4CCC4)n3)cc2)c1 [Compound 43]
remaining activity at 1 µM [2]: 41 to 80%

Cc1ncsc1-c1ccc(CNC(=O)[C@@H]2C[C@@H](O)CN2C(=O)[C@H](C(C)C)N2Cc3ccccc3C2=O)c(OCCCOCCCOc2ccc(Nc3ncc(Br)c(NCCCN(C)C(=O)C4CCC4)n3)cc2)c1 [Compound 41]
remaining activity at 1 µM [2]: ≥ 81%

Cc1ncsc1-c1ccc(CNC(=O)[C@@H]2C[C@@H](O)CN2C(=O)[C@@H](NC(=O)COCCOCCOCCOCCOCCOc2ccc(Nc3ncc(Br)c(NCCCN(C)C(=O)C4CCC4)n3)cc2)C(C)(C)C)cc1 [Compound 13]
Dmax (maximal degradation observed) [1]: 96%
DC50 [1]: 29 nM

Cc1ncsc1-c1ccc(CNC(=O)[C@@H]2C[C@@H](O)CN2C(=O)[C@H](C(C)C)N2Cc3ccccc3C2=O)c(OCCCOCCCOCCOc2ccc(Nc3ncc(Br)c(NCCCN(C)C(=O)C4CCC4)n3)cc2)c1 [Compound 46]
remaining activity at 1 µM [2]: 41 to 80%

CCc1cnc(Nc2cccc(OCCCOCCCCOCCCOCC(=O)N[C@H](C(=O)N3C[C@H](O)C[C@H]3C(=O)NCc3ccc(-c4scnc4C)cc3)C(C)(C)C)c2)nc1NCCCN(C)C(=O)C1CCC1 [Compound 52]
remaining activity at 1 µM [2]: ≥ 81%

Cc1ncsc1-c1ccc(CNC(=O)[C@@H]2C[C@@H](O)CN2C(=O)[C@H](C(C)C)N2Cc3ccccc3C2=O)c(OCCOCCOCCCOCCOCCOc2ccc(Nc3ncc(Br)c(NCCCN(C)C(=O)C4CCC4)n3)cc2)c1 [Compound 42]
remaining activity at 1 µM [2]: 41 to 80%

Cc1ncsc1-c1ccc(CNC(=O)[C@@H]2C[C@@H](O)CN2C(=O)[C@@H](NC(=O)COCCCOCCCOc2ccc(Nc3ncc(Br)c(NCCCN(C)C(=O)C4CCC4)n3)cc2)C(C)(C)C)cc1 [Compound 6]
DC50 [1]: > 1000 nM

Cc1ncsc1-c1ccc(CNC(=O)[C@@H]2C[C@@H](O)CN2C(=O)[C@@H](NC(=O)COCCCOCCCCCOc2ccc(Nc3ncc(Br)c(NCCCN(C)C(=O)C4CCC4)n3)cc2)C(C)(C)C)cc1 [Compound 8]
Dmax (maximal degradation observed) [1]: 79%
DC50 [1]: 88 nM

Cc1ncsc1-c1ccc(CNC(=O)[C@@H]2C[C@@H](O)CN2C(=O)[C@H](C(C)C)N2Cc3ccccc3C2=O)c(OCCOCCOCCOCCOCCOCCOc2ccc(Nc3ncc(Br)c(NCCCN(C)C(=O)C4CCC4)n3)cc2)c1 [Compound 37]
remaining activity at 1 µM [2]: ≥ 81%
